Test results: PMC3159025 (2011)

Target: T1, system xc− (obligate cystine-glutamate transporter) (Homo sapiens, UniProt Q9UPY5)
T1 sequence (Q9UPY5 1-501): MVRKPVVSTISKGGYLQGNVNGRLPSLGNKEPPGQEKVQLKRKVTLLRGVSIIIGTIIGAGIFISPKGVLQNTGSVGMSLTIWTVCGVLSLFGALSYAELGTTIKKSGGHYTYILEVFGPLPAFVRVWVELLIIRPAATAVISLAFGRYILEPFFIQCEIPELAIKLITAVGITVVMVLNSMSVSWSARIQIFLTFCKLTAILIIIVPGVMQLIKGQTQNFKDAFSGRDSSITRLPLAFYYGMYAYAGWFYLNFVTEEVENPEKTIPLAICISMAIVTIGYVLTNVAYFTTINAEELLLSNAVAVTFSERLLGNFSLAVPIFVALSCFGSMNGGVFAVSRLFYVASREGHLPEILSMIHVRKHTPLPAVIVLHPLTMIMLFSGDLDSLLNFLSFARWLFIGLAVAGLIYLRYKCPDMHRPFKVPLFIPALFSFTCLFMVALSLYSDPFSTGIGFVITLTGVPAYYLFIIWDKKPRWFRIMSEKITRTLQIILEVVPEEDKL
T1 sequence (P08195 2-529 partner): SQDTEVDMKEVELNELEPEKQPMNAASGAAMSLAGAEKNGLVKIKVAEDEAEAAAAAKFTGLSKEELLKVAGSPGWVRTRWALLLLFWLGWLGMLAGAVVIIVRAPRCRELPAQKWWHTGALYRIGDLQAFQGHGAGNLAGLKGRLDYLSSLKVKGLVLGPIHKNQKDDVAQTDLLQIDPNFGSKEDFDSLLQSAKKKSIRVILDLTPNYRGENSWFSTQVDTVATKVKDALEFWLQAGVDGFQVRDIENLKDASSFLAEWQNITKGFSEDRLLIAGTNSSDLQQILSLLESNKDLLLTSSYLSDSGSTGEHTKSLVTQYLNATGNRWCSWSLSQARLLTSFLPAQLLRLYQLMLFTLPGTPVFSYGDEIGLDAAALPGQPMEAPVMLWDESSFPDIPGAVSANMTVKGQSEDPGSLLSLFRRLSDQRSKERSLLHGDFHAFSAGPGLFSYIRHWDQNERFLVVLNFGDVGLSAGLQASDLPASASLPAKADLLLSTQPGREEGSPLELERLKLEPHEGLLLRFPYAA
Test: inhibition of 3H-L-glutamate uptake
Assay type: cell-based
Conditions: SNB-19, read-out: Uptake ^a Sxc^-

N[C@@H](CSSC[C@H](N)C(=O)O)C(=O)O [L-Cystine]
activity at 500 µM: 22 ± 3%
